We go through five molecules from patent publication US8372880B2, “Compositions and methods using same for treating amyloid-associated diseases” (Tel Aviv University Future Technology Development L.P., priority 2003, dated 2013).

“And” between values parts separate entries of the source, which are not always exact repeats. Identical values can stand only once. Like-named read-outs stand apart in the source and are kept apart here. Where only a bound is given, the exact number is not on record here.

The nature of data set [1]: Pharmacokinetics in mice, intravenous administration. The conditions noted are these: for PF3 Concentration / Phenol red Concentration, Analyzed: mice plasma.
Procedure: (§1) Male mice (ICR), 5 weeks of age, weighing 27-32 grams at study initiation were used. A total of sixteen animals were tested in each set of experiments, divided to 8 groups, 2 animals in each group. Animals were acclimatized for 5-7 days. All test animals was kept under environmental controlled housing conditions throughout the entire study period, and maintained in accordance with Harlan Biotech Israel (HBI) approved standard operation procedures (SOP's).
A single slow intravenous injection (over a period of approximately one minute) was administered into one of the tail veins of each animal.
Dosing solutions were prepared in a co-solvent vehicle system containing DMA:PEG400:Saline 25:40:35 respectively (e.g., each 1 ml consists of 0.25 ml DMA, 0.4ml PEG400 and 0.35 ml Saline).
Dosing solutions were freshly and identically prepared prior to dosing, as deemed necessary.
Blood samples were taken at the following time points: pre-dosing (time 0), 5, 15, 30, 60, 90, 120 and 300 minutes post dosing, two animals per time point, by retro orbital sinus bleeding under CO2 anesthesia. Individual blood samples of at least 0.4 ml whole blood were collected into pre-labeled lithium heparin coated tubes. Plasma separation was made as soon as possible after collection, by centrifugation at 2500G for 15 minutes. After centrifugation supernatant was transferred to eppendorff tube (1.5 ml) pre-labeled with the appropriate animal number, study number and time post dosing. Plasma samples were kept at about −20° C.
(§2) Analysis was performed in Analyst Ltd., using LC/MS/MS method.
(§3) The chromatographic separation was achieved on a Gemini C1 8 column (50×2.0 mm, 5 μm), using 50:50 acetonitrile:water solution containing 0.1% NH4OH as the mobile phase, at a flow rate of 0.3 ml/minute.
(§4) All samples were analyzed by the Micromass Quattro Pt triple-quadrupole mass selective detector equipped with an electrospray ionization source. […] The system includes a 2795 HT Waters HPLC and Masslynx v.4.0 software. Quanlynx v.4.0 software was used for calculation.
(§5) For calculation of phenol red concentration in samples, weighted linear regression curves (1/x^2) were calculated from response of analyte versus calibration standard concentration. The weighted linear regression correlation coefficient was grater than 0.99.
(§6) K Parameters Calculations: PK parameters were calculated using Winnonlin Pro 4.01 software (Pharsight).
Data set [2] is described as follows: Pharmacokinetics in mice, oral administration.
Procedure: as §1
Administration to test animals was performed orally, following food deprivation of about 3.5-5 hours, by the use of gavage needle made of stainless steel which was introduced directly to the stomach.
Dosing solutions were prepared as described hereinabove for the I.V. administration.
Blood samples were taken, as described hereinabove, at the following time points: 30, 45, 60, 120, 180, 240, 300 and 360 minutes post dosing, two animals per time point, by retro orbital sinus bleeding under CO2 anesthesia.
as §2, §3, §4, §5, §6
In data set [3] the test system is Caco-2 cells. The conditions noted are these: for recovery at experiment end point: 90 minutes.
Procedure: Cells at passage 68 were used in these studies. Caco-2 cells were grown in high D-glucose DMEM medium supplemented with 1% L-glutamine, 1% nonessential amino acids, 1% sodium pyruvate, 1% penicillinstreptomycin and 10% fetal bovine serum.
Cells (passage 68) were harvested after 95% confluence and seeded at a density of 85,000 cells per polycarbonate membranes (0.4 μm pore size and a surface area of 0.33 cm^2) inserts. Cells on inserts were cultured for 10 days.
Transport studies: Test substances transport across Caco-2 monolayers was investigated in ‘apical to basolateral’ direction (n=2), at two time points (45 and 90 minutes).
Prior to the experiment, the culture medium was removed; cells were washed twice with 150 μl apical buffer and 600 μl basolateral buffer (containing 25 mM D-glucose, 20 mM HEPES biological buffer, 1.25 mM CaCl2, 0.5 mM MgCl2, adjusted to pH 7.4 with KOH) and were incubated for 30 minutes at 37° C., 45 RPM, with the same buffers.
Transport studies were performed at 37° C., with shaking at 45 RPM with either the tested compounds or standards (n=2). At each time point, aliquot of 120 μl Basolateral sample was drawn from each insert. For the radioactive marker Mannitol, 20 μl duplicate aliquots were drawn at each time point. […] At endpoint (90 minutes), the whole volume of the apical and basolateral chambers was collected.
Data Recording: Substance samples and propranolol standard samples were analyzed using HPLC (see below for analyses details). [^3H]-Mannitol samples were subjected to analysis by liquid scintillation counting in a Packard TopCount NXT. The results were obtained in CPM.
Papp Calculations: Apparent permeability coefficients (Papp) of tested compounds and standards were calculated from the following equation: Papp(t)=(CtV/t)×(1/C0A) where C0 is the initial concentration (at t=0) of the compound on the donor (apical side); Ct is the concentration at the calculated time point (t) in the receiver (basolateral) chamber; V is receiver chamber volume; A is the surface area of the monolayer; and t is the elapsed time.
Compound and standards Recovery: At the last time point of the experiment (90 minutes), basolateral and apical amounts values were measured and recovery (%) of the tested compound or standard was calculated according to the following equation: Recovery %=(C90 min×Vbasolateral)+(C90 min×Vapical)/C0×Vapical
HPLC analyses: HPLC analyses were performed using a Waters 2790 HPLC system, equipped with PDA 996 detector (Waters).
Data set [4] deals with T1, hIAPP1-37 (Homo sapiens, UniProt P10997).
T1 construct: purchased Calbiochem (CalBiochem Calif., USA); host or cells: solid-phase chemical synthesis
T1 sequence (P10997 34-70 limits assumed): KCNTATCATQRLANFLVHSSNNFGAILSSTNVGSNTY
Briefly: Thioflavin T fluorescence assay of fibril formation. The data set is classed as biochemical. As to the method:
Fibrillization of hIAPP1-37 was monitored by Thioflavin T dye binding assay. hIAPP1-37 stock solution was diluted to a final concentration of 4 μM in 10 mM sodium acetate buffer (pH 6.5) with or without inhibitor, and a final HFIP concentration of 1% (vol). […] In every measurement ThT was added to a final concentration of 3 μM and measurements were carried out using Perkin Elmer (excitation 450 nm, 2.5 nm slit; emission 480 nm 10 nm slit). […] Background was subtracted from all samples.
Thioflavin T (ThT) is commonly used for detecting the level of amyloid formation. hIAPP1-37 solution was prepared as described above. Following incubation in the presence or absence of phenol red and addition of 3 μM ThT to each sample, fluorescence was measured.
Fibrillization of hIAPP1-37 was monitored by Thioflavin T (ThT) dye binding assay, as described above, using an inhibitor concentration of 40 μM or 4 μM.

The subject of data set [5] is Caco-2 cells.
Procedure: LDH Assay: 100 μl of cells supernatant were removed from the basolateral chamber at the end of transport experiment. LDH release was assayed according to the manufacturer instructions using cytotoxicity detection kit (Roche, Cat. No. 1 644 793).
Specifically, an increase in the amount of dead or plasma membrane-damaged cells results in release of lactate dehydrogenase (LDH) enzyme to the surrounding buffer. The enzymatic activity of LDH is measured in a colorimetric assay. A surfactant that damages cell membranes is used as a positive control.
Short term damage—LDH Release: LDH activity in basolateral buffer from inserts of each group (n=2) was measured in a colorimetric assay as described hereinabove. The positive control glycocholate was previously assayed and is shown for comparison.
In data set [6] the test system is βTC-tet cells. Briefly: MTT cell viability assay, hIAPP cytotoxicity. The data set is classed as cell-based, murine. The conditions noted are these: 4 μM hIAPP1-37, 24 hrs, phenol red in medium, 50% without phenol red. As to the method: βTC-tet cells [Fleischer, N., Chen C., Surana, M., Leiser, M., Rossetti, L., Pralong, W. and Efrat, S. (1998) Functional analysis of a conditionally transformed pancreatic beta-cell line, Diabetes 47, 1419-1425] or PC12 cells (ATCC # CRL-1721) were plated on 24-well plates (2-10^5/well) or on 96-well plates (1-10^4/well) respectively, and allowed to adhere for 24 hours. Synthetic hIAPP1-37 stock solution was diluted to a final concentration of 4 μM in serum free growth medium [Fleischer (1998) Supra] containing DMEM with or without phenol red. Immediately following dilution, samples were centrifuged at 4° C. for 20 minutes at 20,000 g, and the supernatant was bubbled with nitrogen for 30 min to evaporate residual HFIP. Cells were washed twice with PBS and incubated with the supernatant for 24 hrs. MTT (Sigma M-2128) was then added for 3 hrs, followed by addition of lysis buffer and incubation over night. Assay was effected according to Manufacturer's instructions. Samples were read at 570 nm. Cell viability was calculated in comparison to cells incubated in the absence of hIAPP in medium with or without phenol red, respectively.
The ability of phenol red to modulate cytotoxicity effect of hIAPP amyloid assemblies on pancreatic β cells in culture was addressed. […]
On the technique in general: Tetrazolium dyes change colour on reduction, which living cells bring about.

In data set [7] the target is T2, hIAPP20-29 (Homo sapiens, UniProt P10997).
T2 construct: purchased Peptron, Inc. (Taejeon, Korea); host or cells: solid-phase chemical synthesis
Briefly: Transmission electron microscopy of fibrils. It counts as biochemical. The conditions noted are these: hIAPP20-29 with inhibitor, 24 hr incubation. As to the method:
10 μL samples of hIAPP22-29 or hIAPP20-29 from the aggregation assay, and hIAPP1-37 from the fluorescence assay were placed on 400-mesh copper grids (SPI supplies, West Chester Pa.) covered by carbon-stabilized Formvar film. After 1 minute, excess fluid was removed, and the grids were negatively stained with 2% uranyl acetate in water for another two minutes. Samples were viewed in a JEOL 1200EX electron microscope operating at 80 kV.
Samples of hIAPP22-29 and hIAPP20-29 taken from the aggregation assay (described in Example 3) were visualized using transmission electron microscopy. As is shown in FIG. 4a, distinct and well-defined amyloid fibers were observed 3 and 72 hours after initiation of aggregation in both samples of the hIAPP22-29 peptide, with a minor increase in fiber density and width following 72 hours. […] Same results were obtained with the hIAPP20-29 peptide after 24 hr incubation (FIG. 4b) in the presence of phenol red inhibitor. No inhibition was observed using phenolphthaleine under the same conditions and fibrillar structures were evident on the TEM grid.

Data set [8] deals with T2, hIAPP20-29. Briefly: Kinetic aggregation assay (turbidity). It counts as biochemical. The conditions noted are these: 1 mM peptide, 40 mM inhibitor, Tris pH 7.2, 4% DMSO. As to the method: Stock solutions of hIAPP22-29 and hIAPP20-29 peptide were prepared by dilution of lyophilized peptides into 10 mM Tris-HCl (pH 7.2) buffer to a final concentration of 1 mM peptide and 4% DMSO. Turbidity data were collected at 405 or 560 nm at room temperature. A buffer solution containing the same amount of DMSO as the tested samples was used as blank. Turbidity was measured using disposable UVette cuvettes (Eppendorf, Germany) and a Scinco S-3100 spectrophotometer.
The core amyloidogenic fragments of hIAPP (hIAPP22-29, hIAPP20-29) aggregate in an aqueous solution. Such an aggregation behavior was served as a preliminary assay for amyloid formation.
In order to evaluate the ability of phenol red to inhibit amyloid formation, the aggregation of 1 mM hIAPP22-29 and hIAPP20-29 (SEQ ID NO: 1 and NO: 2, respectively) was examined in the absence or presence of 40 mM phenol red. To verify the specificity of phenol red molecule towards hIAPP core peptides, a very similar molecule—phenolphthaleine, which differs only by the lack of the sulfon group, was used as control (FIG. 7).

Where [9] appears, read: I.V. PF3, 5 minutes post dosing.
[10] abbreviates: I.V. PF3, 15 minutes post dosing.
Where [11] appears, read: I.V. PF3, 30 minutes post dosing.
[12] abbreviates: I.V. PF3, 60 minutes post dosing.
The mark [13] stands for this setting: I.V. PF3, 125 minutes post dosing.
The mark [14] stands for this setting: I.V. PF3, 300 minutes post dosing.
The mark [15] stands for this setting: phenol red plasma profile, mice, I.V. PF3.
[16] abbreviates: phenol red plasma profile, mice, I.V. PF3 .25 mg/kg.
Where [17] appears, read: 4 μM hIAPP1-37, 40 μM inhibitor.

On to diacetoxy phenol red [PF3], for which the “PF3 Concentration” value in data set [1] (setting [9]) was “n/d (not detected and denotes a concentration lower than 5 ng/ml)”; in data set [1] (setting [10]), “n/d (not detected and denotes a concentration lower than 5 ng/ml)”; in data set [1] (setting [11]), “n/d (not detected and denotes a concentration lower than 5 ng/ml)”; in data set [1] (setting [12]), “n/d (not detected and denotes a concentration lower than 5 ng/ml)”; in data set [1] (I.V. PF3, 90 minutes post dosing) it was “n/d (not detected and denotes a concentration lower than 5 ng/ml)”; in data set [1] (setting [13]), “n/d (not detected and denotes a concentration lower than 5 ng/ml)”. Further, the “PF3 Concentration” value in data set [1] (setting [14]) was “n/d (not detected and denotes a concentration lower than 5 ng/ml)”. The “Phenol red Concentration, Analyzed” value in data set [1] (setting [9]) is more than 20 µg/mL; in data set [1] (setting [10]), more than 20 µg/mL; in data set [1] (setting [11]), more than 20 µg/mL; in data set [1] (setting [12]), 4.12 µg/mL and 4.33 µg/mL; in data set [1] (setting [13]), 0.76 µg/mL; in data set [1] (setting [14]) it was 0.22 µg/mL and 0.29 µg/mL. For the same molecule, the “presence of the pro-drug PF3 in plasma” value in data set [1] (mice, following I.V. administration, even after 5 minutes) is listed as “not observed”; in data set [2] (following oral administration), “not detected”. In data set [1] (setting [15]), the “AUC (area under the curve)” value was 2232 µg·min/mL. For the same molecule, the “Volume of distribution (Vss)” value in data set [1] (setting [15]) stood at 0.367 L/kg. Also, the Clearance in data set [1] (setting [16]) amounted to 11 mL/min/kg. Also, the “Half Life” value in data set [1] (setting [16]) is listed as 40 min; in data set [2] (phenol red plasma profile, P.O. PF3 […]) it was 32 min. The intestinal absorption result in data set [2] (oral administration) is “clearly absorbed in the intestine”. The “F, Bioavailability” value in data set [2] (phenol red plasma profile, P.O. PF3 […] vs I.V.) turned out to be 16%. Besides, in data set [3] (1 mM concentration), the “recovery at experiment end point” value is on record as 53%±5%. Besides, the permeability grading result in data set [3] (CaCo-2, apical to basolateral) was “low-medium range”. Besides, the “Papp values compared to standards” value in data set [3] (apical to basolateral, 45 and 90 minutes) was “higher than mannitol (a marker of paracellular transport) Papp values and lower than propranolol”. Further, in data set [3] (higher concentration (0.1 mM)), the detection of transport result is on record as “detected”. Also, in data set [3] (lower concentration (0.02 mM), 45 and 90 minutes), the “detection in the basolateral chamber” value is “not detected”. Besides, in data set [4] (setting [17]), the “inhibition of hIAPP1-37 fibril formation (ThT fluorescence)” value (from here on “inhibition of hIAPP1-37 fibril formation”) was “reduced inhibition effect relatively to the phenol red molecule”. The “LDH activity in basolateral buffer” value in data set [5] (0.1 mM, only one of the inserts, not repeated, attributed to a factor other than PF3) is recorded as “increase in LDH activity was detected”.

As to `Nc1c(/N=N/c2ccc(-c3ccc(/N=N/c4cc(S(=O)(=O)O)c5ccccc5c4N)cc3)cc2)cc(S(=O)(=O)O)c2ccccc12` [congo red, Congo red, reference compound], the “inhibition of hIAPP1-37 fibril formation” value in data set [4] (green tea polyphenols experiment, 48 hr to 12 days) is recorded as “inhibitory effect”.

As a reminder, the IC50 is the concentration that inhibits the measured activity by half. Turning to `O=S1(=O)OC(c2ccc(O)cc2)(c2ccc(O)cc2)c2ccccc21` [phenol red], the IC50 in data set [4] (4 μM hIAPP1-37, gradual concentration of phenol red, read-out: IC50 of inhibition of fibril formation (ThT fluorescence)) is approximately 2500 nM. In data set [4] (phenol red concentration of 20 μM and above, after one week of incubation), the “inhibition level of fibril formation (ThT end point)” value was “about 90%”. Further, the “cell viability (MTT)” value in data set [6] is reported as 80%.

Regarding `COc1ccc(C2(c3ccc(OC)cc3)OS(=O)(=O)c3ccccc32)cc1` [PF4, dimethoxy phenol red], the “recovery at experiment end point” value in data set [3] (0.2 mM concentration) is listed as 105%±31%; in data set [3] (1 mM concentration), 123%±48%. In data set [3] (both tested concentrations), the “detection at the basolateral chamber” value is “not detected”. In addition, the “inhibition of hIAPP1-37 fibril formation” value in data set [4] (setting [17]) is listed as “reduced inhibition effect relatively to the phenol red molecule”; in data set [4] (40 μM inhibitor, sample not centrifuged) it was “more evident”. Further, in data set [5] (CaCo-2 inserts after transport experiment), the “cytotoxicity (LDH activity in basolateral buffer)” value is “negligible”.

Take `O=C1OC(c2ccc(O)cc2)(c2ccc(O)cc2)c2ccccc21` [phenolphthaleine]: the “fibril morphology by TEM” value was “No inhibition” in data set [7] and “no inhibition effect” in data set [7] (listed as phenolephthaleine). The “aggregation of hIAPP20-29 (turbidity)” value in data set [8] is given as “No inhibition effect”.
